In data set [1] the test system is SKOV-3 ovarian cancer xenografts. Kind of data set: Size effect on biodistribution, NIR imaging, xenograft model II. Further details: species or system nude mice. The settings on record: in vivo NIR imaging. As for the experimental part:
To study the effects of particle size on the in vivo biodistribution of nanoparticles, the same concentration of DiD (a hydrophobic near infra-red (NIR) cyanine dye, 1 mg/mL) was co-loaded with PTX (4 mg/mL, 4 mg/mL and 3 mg/mL, respectively) into 20 mg/mL micelle solutions of PEG^2000-CA4, PEG^5000-CA8 and PEG^3000-CA4, to form three fluorescence labeled micelle preparations with distinct sizes of 17 nm, 64 nm and 154 nm, respectively (FIG. 35A). Each of these three sizes of DiD-loaded micelles was incubated with Raw 264.7 macrophage cells for 2 h. The cells were then washed three times with PBS, fixed with 70% ethanol and observed under confocal fluorescence microscope. […] NIR fluorescent imaging was used to evaluate the in vivo biodistribution of the three micelles with different sizes in nude mice bearing the SKOV-3 ovarian cancer xenografts (subcutaneous and intraperitoneal implants). The mice were injected via the tail vein with the same volume of the above three PTX-DiD loaded micelle preparations in PBS. Ex vivo imaging of the excised organs and tumors were performed at 24 h after injection. […] The in vivo NIR images of a tumor bearing mouse treated with the DiD-PTX-PEG^5000CA8 was recorded over time (FIG. 35D). The accumulation of the DiD loaded micelles at the tumor site via the EPR effect began at 2 h after injection and continued to increase over the 24 h period.

Data set [2] relates to intraperitoneal SKOV3-luc ovarian tumor. Nature of the data set: Biodistribution after i.p. injection, xenograft model III. The data set is classed as in vivo, mice. Particulars: up to 72 h. On the procedure:
PEG^5000-CA8 (polymer 7) nanoparticles biodistribution after i.p. injection in intraperitoneal SKOV3-luc ovarian tumor bearing mice was investigated. Mice were injected i.p. with free DiD or DiD-loaded PEG^5000-CA8 nanoparticles. […] At 72 h, the peritoneal cavity was exposed and scanned with the Kodak imaging station, displaying DiD-labeled PEG^5000-CA8 nanoparticles localization on the surface of peritoneal tumor nodules (FIGS. 38A-38B).

Regarding `CCCCCCCCCCCCCCCCCCN1C(=CC=CC=CC2=[N+](CCCCCCCCCCCCCCCCCC)c3ccccc3C2(C)C)C(C)(C)c2ccccc21.[O-][Cl+3]([O-])([O-])[O-]` [DiD, 1,1′-dioctadecyl-3,3,3′,3′-tetramethylindo-dicarbocyanine perchlorate], in data set [1], the tumor targeting entry is listed as “no tumor targeting was found”. The “fluorescence distribution after i.p. injection” value in data set [2] is on record as “declined to a level not distinguishable from background auto-fluorescence at 72 h”.

For the origin of these results see US10556021B2, “Nanocarriers for drug delivery” (THE REGENTS OF THE UNIVERSITY OF CALIFORNIA, priority 2008, dated 2020).
